# Source: article PMC9195458, “Identification of antimalarial targets of chloroquine by a combined deconvolution strategy of ABPP and MS-CETSA” (Military Medical Research, 2022)
# Columns and labels:
# [1] = biological target: T1, PfPGK (Plasmodium falciparum, UniProt P27362); experiment: photo-affinity labelling, click TAMRA, in-gel fluorescence; type: binding; conditions: covalent photo-crosslink on UV 365 nm; recombinant protein; competed by excess CQ
# T1 construct: gene PGK
# T1 sequence (P27362 1-416): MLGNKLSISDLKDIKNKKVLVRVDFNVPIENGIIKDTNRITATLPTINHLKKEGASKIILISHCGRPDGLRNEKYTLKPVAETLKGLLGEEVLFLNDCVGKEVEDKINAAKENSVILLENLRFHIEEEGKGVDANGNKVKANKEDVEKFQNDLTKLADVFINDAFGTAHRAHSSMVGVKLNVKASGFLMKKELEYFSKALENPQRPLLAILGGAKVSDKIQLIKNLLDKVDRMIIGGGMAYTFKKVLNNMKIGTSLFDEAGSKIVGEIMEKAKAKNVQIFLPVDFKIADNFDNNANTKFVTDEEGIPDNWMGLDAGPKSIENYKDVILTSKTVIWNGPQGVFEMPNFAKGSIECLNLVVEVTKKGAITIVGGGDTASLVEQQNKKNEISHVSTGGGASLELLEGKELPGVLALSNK
# [2] = biological target: T2, PfLDH (Plasmodium falciparum, UniProt Q76NM3); experiment: as above; type: binding; conditions: covalent photo-crosslink on UV 365 nm; recombinant protein; competed by excess CQ
# T2 construct: gene PF3D7_1324900
# [3] = biological target: T3, PfOAT (Plasmodium falciparum, UniProt Q6LFH8); experiment: as above; type: binding; conditions: covalent photo-crosslink on UV 365 nm; recombinant protein; competed by excess CQ
# T3 construct: gene OAT
# T3 sequence (Q6LFH8 1-414): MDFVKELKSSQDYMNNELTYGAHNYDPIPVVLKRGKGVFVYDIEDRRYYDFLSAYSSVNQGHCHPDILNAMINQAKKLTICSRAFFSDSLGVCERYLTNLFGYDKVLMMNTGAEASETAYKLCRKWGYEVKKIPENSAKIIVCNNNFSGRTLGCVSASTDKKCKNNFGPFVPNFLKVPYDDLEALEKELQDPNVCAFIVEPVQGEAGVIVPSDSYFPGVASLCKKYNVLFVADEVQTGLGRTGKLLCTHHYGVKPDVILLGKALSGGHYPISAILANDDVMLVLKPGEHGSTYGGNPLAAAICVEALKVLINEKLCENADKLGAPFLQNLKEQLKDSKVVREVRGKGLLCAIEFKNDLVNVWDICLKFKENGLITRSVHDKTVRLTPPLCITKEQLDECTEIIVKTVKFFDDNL
# [4] = biological target: T4, PfPyrK (Plasmodium falciparum, UniProt C6KTA4); experiment: as above; type: binding; conditions: covalent photo-crosslink on UV 365 nm; recombinant protein; competed by excess CQ
# T4 construct: gene PF3D7_0626800
# T4 sequence (C6KTA4 1-511): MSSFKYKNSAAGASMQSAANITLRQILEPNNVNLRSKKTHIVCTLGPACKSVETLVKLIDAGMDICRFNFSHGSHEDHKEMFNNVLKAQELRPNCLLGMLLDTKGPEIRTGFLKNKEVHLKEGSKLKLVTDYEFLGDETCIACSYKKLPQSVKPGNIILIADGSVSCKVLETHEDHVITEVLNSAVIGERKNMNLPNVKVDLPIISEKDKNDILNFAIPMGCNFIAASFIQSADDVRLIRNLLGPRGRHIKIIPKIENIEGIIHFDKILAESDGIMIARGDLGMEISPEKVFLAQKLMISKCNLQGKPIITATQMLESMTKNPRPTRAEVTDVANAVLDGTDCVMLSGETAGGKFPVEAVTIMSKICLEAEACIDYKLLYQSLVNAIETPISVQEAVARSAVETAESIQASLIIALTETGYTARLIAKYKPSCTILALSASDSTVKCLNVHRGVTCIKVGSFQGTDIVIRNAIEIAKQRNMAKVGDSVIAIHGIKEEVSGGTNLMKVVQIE
# [5] = biological target: T5, PfTPI (Plasmodium falciparum, UniProt Q7KQM0); experiment: as above; type: binding; conditions: covalent photo-crosslink on UV 365 nm; recombinant protein; competed by excess CQ
# T5 construct: gene TPI
# [6] = biological target: T2, PfLDH; experiment: SPR (BIAcore); type: binding; conditions: read-out: KCQ-PfLDH
# [7] = biological target: T6, plasmepsin II (Plasmodium falciparum, UniProt Q8I6V3); experiment: ITDR MS-CETSA thermal shift; type: biochemical; conditions: parasite lysate, CQ 0-300 µmol/L; heated at 37, 52 or 61 °C
# T6 construct: gene PMII; native protein in soluble parasite lysate
# [8] = biological target: T2, PfLDH; experiment: enzyme activity inhibition, dose-response; type: biochemical; conditions: recombinant protein
# [9] = biological target: T3, PfOAT; experiment: SPR (BIAcore); type: binding; conditions: read-out: KCQ-PfOAT
# [10] = biological target: T1, PfPGK; experiment: SPR (BIAcore); type: binding; conditions: read-out: KCQ-PfPGK
# [11] = biological target: T4, PfPyrK; experiment: enzyme activity inhibition, dose-response; type: biochemical; conditions: recombinant protein
# [12] = biological target: T1, PfPGK; experiment: enzyme activity inhibition, dose-response; type: biochemical; conditions: recombinant protein
# [13] = biological target: T5, PfTPI; experiment: enzyme activity inhibition, dose-response; type: biochemical; conditions: recombinant protein
# [14] = biological target: T7, falcilysin (Plasmodium falciparum, UniProt Q76NL8); experiment: ITDR MS-CETSA thermal shift; type: biochemical; conditions: parasite lysate, CQ 0-300 µmol/L; heated at 37, 52 or 61 °C
# T7 construct: gene FLN; native protein in soluble parasite lysate
# T7 sequence (Q76NL8 1-1193): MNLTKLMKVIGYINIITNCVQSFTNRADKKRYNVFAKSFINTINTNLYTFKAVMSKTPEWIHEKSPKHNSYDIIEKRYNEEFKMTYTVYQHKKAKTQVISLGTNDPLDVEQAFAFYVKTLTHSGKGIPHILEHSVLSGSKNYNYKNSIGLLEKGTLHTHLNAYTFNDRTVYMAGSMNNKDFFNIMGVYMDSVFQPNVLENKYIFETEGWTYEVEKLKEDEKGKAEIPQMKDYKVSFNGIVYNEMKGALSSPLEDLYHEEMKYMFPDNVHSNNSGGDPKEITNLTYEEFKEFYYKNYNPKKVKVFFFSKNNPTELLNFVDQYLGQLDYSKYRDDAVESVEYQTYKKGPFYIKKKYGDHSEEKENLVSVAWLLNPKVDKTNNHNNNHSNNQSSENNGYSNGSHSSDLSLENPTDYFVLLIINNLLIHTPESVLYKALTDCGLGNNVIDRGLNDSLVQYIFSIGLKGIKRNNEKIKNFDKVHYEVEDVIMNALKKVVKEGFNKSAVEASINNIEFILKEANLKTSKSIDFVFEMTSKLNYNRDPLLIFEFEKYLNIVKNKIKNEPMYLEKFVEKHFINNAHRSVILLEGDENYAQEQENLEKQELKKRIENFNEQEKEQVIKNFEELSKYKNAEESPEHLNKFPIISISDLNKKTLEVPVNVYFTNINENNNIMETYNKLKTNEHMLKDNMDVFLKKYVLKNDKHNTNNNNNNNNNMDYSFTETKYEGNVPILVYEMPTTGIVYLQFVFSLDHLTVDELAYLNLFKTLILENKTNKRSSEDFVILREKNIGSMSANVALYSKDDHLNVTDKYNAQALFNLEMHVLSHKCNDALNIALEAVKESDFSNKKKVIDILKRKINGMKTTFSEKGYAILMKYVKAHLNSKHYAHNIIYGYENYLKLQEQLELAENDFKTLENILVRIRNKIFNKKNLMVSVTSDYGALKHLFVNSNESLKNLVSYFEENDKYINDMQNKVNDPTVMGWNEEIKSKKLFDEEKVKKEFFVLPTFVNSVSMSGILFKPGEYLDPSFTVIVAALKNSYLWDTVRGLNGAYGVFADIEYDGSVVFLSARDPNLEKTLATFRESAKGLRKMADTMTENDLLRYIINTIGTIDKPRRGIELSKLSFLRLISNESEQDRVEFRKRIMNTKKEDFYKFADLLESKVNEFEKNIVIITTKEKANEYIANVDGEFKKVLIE
# [15] = biological target: T5, PfTPI; experiment: SPR (BIAcore); type: binding; conditions: read-out: KCQ-PfTPI
# [16] = biological target: T3, PfOAT; experiment: enzyme activity inhibition, dose-response; type: biochemical; conditions: recombinant protein
# [17] = biological target: T4, PfPyrK; experiment: SPR (BIAcore); type: binding; conditions: read-out: KCQ-PfPyrK
# [18] = biological target: T8, plasmepsin IV (Plasmodium falciparum, UniProt Q8IM16); experiment: ITDR MS-CETSA thermal shift; type: biochemical; conditions: parasite lysate, CQ 0-300 µmol/L; heated at 37, 52 or 61 °C
# T8 construct: gene PMIV; native protein in soluble parasite lysate
# T8 sequence (Q8IM16 122-449): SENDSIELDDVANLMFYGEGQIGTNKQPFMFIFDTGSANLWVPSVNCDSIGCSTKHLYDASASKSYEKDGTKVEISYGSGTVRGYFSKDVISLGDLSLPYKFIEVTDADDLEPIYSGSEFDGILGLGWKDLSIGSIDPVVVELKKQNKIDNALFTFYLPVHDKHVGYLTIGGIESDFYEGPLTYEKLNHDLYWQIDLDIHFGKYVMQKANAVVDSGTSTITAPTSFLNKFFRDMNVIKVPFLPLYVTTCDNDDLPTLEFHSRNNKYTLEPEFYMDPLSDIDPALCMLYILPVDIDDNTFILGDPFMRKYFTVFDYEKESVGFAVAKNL
# T5 sequence (Q7KQM0 whole entry): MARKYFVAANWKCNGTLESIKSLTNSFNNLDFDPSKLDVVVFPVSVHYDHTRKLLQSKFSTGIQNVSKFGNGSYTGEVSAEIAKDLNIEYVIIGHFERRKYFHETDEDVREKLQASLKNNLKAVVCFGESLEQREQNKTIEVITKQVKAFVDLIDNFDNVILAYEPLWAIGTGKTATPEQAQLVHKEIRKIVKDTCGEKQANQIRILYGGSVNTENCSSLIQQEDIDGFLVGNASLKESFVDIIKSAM
# T2 sequence (Q76NM3 1-316): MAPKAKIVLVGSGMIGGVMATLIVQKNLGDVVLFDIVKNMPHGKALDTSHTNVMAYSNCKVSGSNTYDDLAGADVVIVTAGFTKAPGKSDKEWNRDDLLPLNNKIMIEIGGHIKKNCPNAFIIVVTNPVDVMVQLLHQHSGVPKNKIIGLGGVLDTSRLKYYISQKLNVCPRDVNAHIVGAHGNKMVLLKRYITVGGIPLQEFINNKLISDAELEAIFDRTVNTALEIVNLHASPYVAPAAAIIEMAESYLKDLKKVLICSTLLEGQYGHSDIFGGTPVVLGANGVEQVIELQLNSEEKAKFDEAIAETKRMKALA
# T6 sequence (Q8I6V3 125-453): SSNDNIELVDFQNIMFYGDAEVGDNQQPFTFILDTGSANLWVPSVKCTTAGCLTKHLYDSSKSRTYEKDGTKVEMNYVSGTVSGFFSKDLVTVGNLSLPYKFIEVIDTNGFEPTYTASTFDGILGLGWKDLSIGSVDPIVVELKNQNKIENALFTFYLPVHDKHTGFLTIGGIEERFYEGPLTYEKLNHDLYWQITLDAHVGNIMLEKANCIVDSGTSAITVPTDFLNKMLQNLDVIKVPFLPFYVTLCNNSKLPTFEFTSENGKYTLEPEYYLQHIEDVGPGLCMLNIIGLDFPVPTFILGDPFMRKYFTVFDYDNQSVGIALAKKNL
Structure (SMILES),"photo-affinity labelling, click TAMRA, in-gel fluorescence [1]","photo-affinity labelling, click TAMRA, in-gel fluorescence [2]","photo-affinity labelling, click TAMRA, in-gel fluorescence [3]","photo-affinity labelling, click TAMRA, in-gel fluorescence [4]","photo-affinity labelling, click TAMRA, in-gel fluorescence [5]",Kd [6],thermal shift [7],inhibition of enzymatic activity [8],Kd [9],Kd [10],inhibition of enzymatic activity [11],inhibition of enzymatic activity [12],inhibition of enzymatic activity [13],thermal shift [14],Kd [15],inhibition of enzymatic activity [16],Kd [17],thermal shift [18]
C#CCOCCC1(CCOCc2cn(CCCCC(=O)N(CC)CCCC(C)Nc3ccnc4cc(Cl)ccc34)nn2)N=N1 (stereo not drawn) [CQP],"CQP specifically binds to recombinant PfLDH, PfOAT, PfPyrK, PfPGK, and PfTPI proteins","CQP specifically binds to recombinant PfLDH, PfOAT, PfPyrK, PfPGK, and PfTPI proteins","CQP specifically binds to recombinant PfLDH, PfOAT, PfPyrK, PfPGK, and PfTPI proteins","CQP specifically binds to recombinant PfLDH, PfOAT, PfPyrK, PfPGK, and PfTPI proteins","CQP specifically binds to recombinant PfLDH, PfOAT, PfPyrK, PfPGK, and PfTPI proteins",,,,,,,,,,,,,
CCN(CC)CCCC(C)Nc1ccnc2cc(Cl)ccc12 (stereo not drawn) [CQ],,,,,,320 nM,plasmepsin II and plasmepsin IV also showed significant thermal shift,CQ inhibits the enzymatic activities of the recombinant PfLDH (a),1910 nM,1950 nM,"CQ inhibits the enzymatic activities of the recombinant PfLDH (a), PfOAT (b), PfPyrK (c)",PfPGK (d) and PfTPI (e) proteins in vitro in a dose-dependent manner,PfPGK (d) and PfTPI (e) proteins in vitro in a dose-dependent manner,falcilysin as well as other hemoglobin proteolytic enzymes,1180 nM,"CQ inhibits the enzymatic activities of the recombinant PfLDH (a), PfOAT (b)",850 nM,plasmepsin II and plasmepsin IV also showed significant thermal shift
